Data as given in patent US11241441B2, “Formulations of lixivaptan for the treatment of polycystic disease” (PALLADIO BIOSCIENCES, INC., priority 2017, dated 2022).

Molecular target: T1, vasopressin V2 receptor (Homo sapiens, UniProt P30518)
T1 construct: Lixivaptan antagonizes the effects of vasopressin that are mediated by the V2 receptor; from tissue; host or cells: living human subjects (in vivo clinical studies); the receptor is the subjects' own and no tissue was isolated
Assay: In-clinic pharmacokinetic study: spot urine osmolality after twice daily lixivaptan
Type: in vivo
Description: Subjects received lixivaptan at total daily doses of 100 mg, 200 mg, or 400 mg (administered as 50, 100, and 200 mg Q12H). […] There were to be approximately 20 subjects enrolled per dose level. An approximately equal number of males and females were enrolled at each dose level such that neither gender was represented by fewer than 8 subjects. The starting date for each cohort subjects was staggered by 7 days for logistical purposes. Screening evaluations were performed within 28 days prior to Day 1.
The following doses of lixivaptan were administered to subjects in this study: (a) Lixivaptan 100 mg, administered as 50 mg [1×50 mg capsule] every 12 hours×15 doses; (b) lixivaptan 200 mg, administered as 100 mg [2×50 mg capsules] every 12 hours×15 doses; and (c) Lixivaptan 400 mg, administered as 200 mg [4×50 mg capsules] every 12 hours×15 doses.
Prior to the morning doses of lixivaptan on Days 1 and 8, subjects fasted for approximately 10 hours prior to lixivaptan administration and 4 hours after lixivaptan administration. All other doses were administered under fasting conditions, either 2 hours before or 2 hours after meals. The study medication was administered with 240 milliliters (mL) room temperature water. Subjects were not to receive any oral fluids, other than those used to administer the dose, for 1 hour before and 1 hour after dose administration. Subjects remained sitting or semi-supine, except to void, for 6 hours following the first two doses. While in the clinic, the subjects refrained from strenuous physical activity.
Spot urine collections for urine osmolality determinations were obtained during the clinic stay and at the end of study (EOS).
Spot urine osmolality was evaluated at different times during the day.

T1 sequence (P30518 whole entry): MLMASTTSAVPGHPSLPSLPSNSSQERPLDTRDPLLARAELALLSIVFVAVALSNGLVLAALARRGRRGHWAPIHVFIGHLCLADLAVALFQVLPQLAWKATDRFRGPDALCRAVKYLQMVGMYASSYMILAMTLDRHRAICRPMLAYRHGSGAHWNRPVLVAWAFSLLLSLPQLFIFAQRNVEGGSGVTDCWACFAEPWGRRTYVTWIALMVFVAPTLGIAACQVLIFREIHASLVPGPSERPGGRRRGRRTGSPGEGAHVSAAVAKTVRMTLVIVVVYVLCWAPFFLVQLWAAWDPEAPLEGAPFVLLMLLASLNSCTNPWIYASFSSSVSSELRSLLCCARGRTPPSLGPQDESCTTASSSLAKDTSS

## Cc1ccc(F)cc1C(=O)Nc1ccc(C(=O)N2Cc3cccn3Cc3ccccc32)c(Cl)c1 [Lixivaptan, 5-fluoro-2-methyl-N-[4-(5H-pyrrolo[2,1-C] [1,4]benzodiazepin-10(11H)-ylcarbonyl)-3-chlorophenyl]benzamide]
50 mg lixivaptan twice daily
  % of subjects with full 24 hour suppression of Uosm to 300 mOsm/kg or lower: approximately 16%
100 mg as 50 mg Q12H, Day 1 Hour 1
  Urine Osmolality Mean: 250.9 mOsm/kg
100 mg as 50 mg Q12H, Day 1 Hour 2
  Urine Osmolality Mean: 79.8 mOsm/kg
100 mg as 50 mg Q12H, Day 1 Hour 4
  Urine Osmolality Mean: 150.6 mOsm/kg
100 mg as 50 mg Q12H, Day 1 Hour 12
  Urine Osmolality Mean: 378.7 mOsm/kg
100 mg as 50 mg Q12H, Day 8 Hour 0
  Urine Osmolality Mean: 464.7 mOsm/kg
100 mg as 50 mg Q12H, Day 8 Hour 1
  Urine Osmolality Mean: 222.5 mOsm/kg
100 mg as 50 mg Q12H, Day 8 Hour 2
  Urine Osmolality Mean: 139.1 mOsm/kg
100 mg as 50 mg Q12H, Day 8 Hour 4
  Urine Osmolality Mean: 274.3 mOsm/kg
100 mg as 50 mg Q12H, Day 8 Hour 12
  Urine Osmolality Mean: 447.4 mOsm/kg
100 mg as 50 mg Q12H, Day 9 Hour 24 after dosing
  Urine Osmolality Mean: 564.7 mOsm/kg
100 mg as 50 mg Q12H, EOS (end of study, Day 29)
  Urine Osmolality Mean: 805.5 mOsm/kg
100 mg twice daily
  % of subjects with full 24 hour suppression of Uosm to 300 mOsm/kg or lower: approximately 46%
200 mg as 100 mg Q12H, Day 1 Hour 1
  Urine Osmolality Mean: 285.9 mOsm/kg
200 mg as 100 mg Q12H, Day 1 Hour 2
  Urine Osmolality Mean: 76.9 mOsm/kg
200 mg as 100 mg Q12H, Day 1 Hour 4
  Urine Osmolality Mean: 136.5 mOsm/kg
200 mg as 100 mg Q12H, Day 1 Hour 12
  Urine Osmolality Mean: 369.9 mOsm/kg
200 mg as 100 mg Q12H, Day 8 Hour 0
  Urine Osmolality Mean: 323.6 mOsm/kg
200 mg as 100 mg Q12H, Day 8 Hour 1
  Urine Osmolality Mean: 156.7 mOsm/kg
200 mg as 100 mg Q12H, Day 8 Hour 2
  Urine Osmolality Mean: 93.9 mOsm/kg
200 mg as 100 mg Q12H, Day 8 Hour 4
  Urine Osmolality Mean: 186.7 mOsm/kg
200 mg as 100 mg Q12H, Day 8 Hour 12
  Urine Osmolality Mean: 334.7 mOsm/kg
200 mg as 100 mg Q12H, Day 9 Hour 24 after dosing
  Urine Osmolality Mean: 465.9 mOsm/kg
200 mg as 100 mg Q12H, EOS (end of study, Day 29)
  Urine Osmolality Mean: 694.1 mOsm/kg
200 mg twice daily
  % of subjects with full 24 hour suppression of Uosm to 300 mOsm/kg or lower (% responders): approximately 78%
400 mg as 200 mg Q12H, Day 1 Hour 1
  Urine Osmolality Mean: 237.4 mOsm/kg
400 mg as 200 mg Q12H, Day 1 Hour 2
  Urine Osmolality Mean: 74.5 mOsm/kg
400 mg as 200 mg Q12H, Day 1 Hour 4
  Urine Osmolality Mean: 91.0 mOsm/kg
400 mg as 200 mg Q12H, Day 1 Hour 12
  Urine Osmolality Mean: 294.1 mOsm/kg
400 mg as 200 mg Q12H, Day 8 Hour 0
  Urine Osmolality Mean: 231.0 mOsm/kg
400 mg as 200 mg Q12H, Day 8 Hour 1
  Urine Osmolality Mean: 106.9 mOsm/kg
400 mg as 200 mg Q12H, Day 8 Hour 2
  Urine Osmolality Mean: 82.3 mOsm/kg
400 mg as 200 mg Q12H, Day 8 Hour 4
  Urine Osmolality Mean: 139.1 mOsm/kg
400 mg as 200 mg Q12H, Day 8 Hour 12
  Urine Osmolality Mean: 219.5 mOsm/kg
400 mg as 200 mg Q12H, Day 9 Hour 24 after dosing
  Urine Osmolality Mean: 390.3 mOsm/kg
400 mg as 200 mg Q12H, EOS (end of study, Day 29)
  Urine Osmolality Mean: 704.8 mOsm/kg
After first dose on Day 1 and Day 8, regardless of the dose
  time of mean maximal reduction of urine osmolality: 2 h
Healthy subjects, 100 mg as 50 mg Q12H, Day 1 Hour 0 (baseline)
  Urine Osmolality Mean: 587.8 mOsm/kg
Healthy subjects, 200 mg as 100 mg Q12H, Day 1 Hour 0 (baseline)
  Urine Osmolality Mean: 602.7 mOsm/kg
Healthy subjects, 400 mg as 200 mg Q12H, Day 1 Hour 0 (baseline)
  Urine Osmolality Mean: 600.1 mOsm/kg
